Results on one compound are retold here after publication PMC8156206, “Novel N,N′-Disubstituted Selenoureas as Potential Antioxidant and Cytotoxic Agents” (Antioxidants, 2021).

The subject of assay [1] is BEAS-2B cells (lung non-malignant derived cell line). As to the kind of experiment: MTT cell viability assay, BEAS-2B. It is filed as cell-based. The conditions noted are these: Homo sapiens, 48 h, mean ± SD. The protocol: Cell lines were purchased from the American Type Culture Collection (ATCC). MCF-7, HTB-54, BEAS-2B and 184B5 cell lines were grown in RPMI 1640 medium (Gibco) supplemented with 10% fetal bovine serum (FBS; Gibco), 100 units/mL penicillin, and […] streptomycin (Gibco). HT-29 and HCT-116 cell lines was cultured in McCoy’s 5A (Gibco), 10% FBS, 100 units/mL penicillin, and 100 μg/mL streptomycin. Cells were maintained at 37 °C and 5% CO2. Culture medium was replaced every three days.
(§1) A cell viability assay of each compound was carried out using an MTT assay. Each selenourea was dissolved in dimethyl sulfoxide (DMSO) at a concentration of 0.01 M. Serial dilutions were prepared with non-supplemented culture medium. Cytotoxic activity of each selenourea was determined at two different concentrations (10 and 50 µM) in MCF-7, HTB-54, and HT-29 cells. In addition, selected compounds were tested at seven different concentrations (0.1, 1, 5, 10, 25, 50, 100 µM) on MCF-7, HT-29, HCT-116, HTB-54, 184B5, and BEAS-2B cells. The number of passages before defrosting the cells was 3, and they were kept under culture up to a maximum of 15.
(§2) Briefly, 1 × 10^4 cells/well were grown in 96-well plates for 24 h. Then, these cells were incubated with either DMSO (negative control) at 5 µM or a different concentration of each tested selenourea for 48 h. A volume of 20 µL of MTT was added 150 min before the termination point to measure cellular viability. After this time, culture medium was removed. The resultant formazan crystals were dissolved in 50 µL of DMSO, and absorbance was measured at 570 nm. Results are expressed as IC50, the half maximal inhibitory concentration. This value was calculated using GraphPad Prism 7 software by nonlinear curve fitting. Furthermore, the selectivity index (SI) was calculated as the ratio of the IC50 values determined for the non-malignant and the tumoral cells (IC50 (184B5)/IC50 (MCF-7) or (IC50 (BEAS-2B)/IC50 (HTB-54). Data were obtained from at least three independent experiments performed in triplicates.

Assay [2] relates to HTB-54 cells (lung adenocarcinoma). As to the kind of experiment: MTT cell viability assay, HTB-54. It is filed as cell-based, human. The method, boiled down: (§3)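 Cells at 1 × 10^4/well grown 24 h, then treated 48 h with selenourea at 10 and 50 µM (selected compounds 0.1–100 µM), DMSO as negative control. MTT added 150 min before end, formazan read at 570 nm; IC50 by nonlinear fit, ≥3 independent experiments in triplicate.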

Assay [3] relates to HCT-116 cells (colon). As to the kind of experiment: MTT cell viability assay, HCT-116. In kind it is cell-based. The conditions noted are these: Homo sapiens, HCT-116; 48 h, MTT, mean ± SD; read-out: IC50 HCT-116 (colon). For orientation: Tetrazolium assays rely on reduction of a dye to a coloured formazan, in cell work by metabolically active cells.
Assay [4] deals with HT-29 cells. As to the kind of experiment: Cell cycle progression, propidium iodide flow cytometry. It is filed as cell-based, human. The conditions noted are these: HT-29, 48 h, 0.1, 1, 5 and 10 µM. The protocol: (§4) 6 × 10^5 cells/well were grown in 6-well plates for 24 h. Cultures were treated with the corresponding amount of the selected compounds, DMSO (control), or 10 μM camptothecin (positive control). Propidium iodide (PI) was used as DNA stain dye to determine cell cycle distribution. Cells were stored at −20 °C with 70% ethanol for at least 24 h. Then, ethanol was removed, cells were washed with PBS, and stained for 30 min with 500 µL of a solution containing 0.001% triton, 0.2% w/v RNase, and 0.02% PI.
To gain further knowledge about the mechanism of action of 6c, we investigated the effect of this compound on cell cycle progression using flow cytometry analysis, with propidium iodide as a DNA staining agent. We analyzed the effect at 48 h treatment with four different concentrations (0.1, 1, 5, and 10 µM) of compound 6c on HT-29 cells. Camptothecin (10 μM) was used as a positive control. […] The cell cycle modulation of 6c is very similar to camptothecin, the reference compound used in the study.
Background: Flow cytometry measures light scatter and fluorescence of single cells or particles in a stream.

The test system of assay [5] is MCF-7, HTB-54, HT-29 and HCT-116 cancer cell lines. Description: MTT assay, panel of four cancer cell lines. The conditions noted are these: MCF-7, HTB-54, HT-29, HCT-116, read-out: IC50 against the four cancer cell lines tested (all the cell lines). It is filed as cell-based. The protocol:
as §1, §2
Those derivatives that reduced the growth of the cell lines below 50% at 10 µM in at least one cell line were selected for being evaluated at five concentrations between […] and 100 µM. Ten compounds (1d, 1e, 2a, 2d, 3a, 6a, 6b, 6c, 6d, and 6e) passed this threshold and four of them (1e, 6c, 6d and 6e) in all three cancer cell lines. The data are expressed as IC50 (mean ± SD) in a panel of four cancer cell lines (MCF-7, HTB-54, HT-29, and HCT-116), and are shown in Table 1. Cisplatin was used as a standard drug. […] Additionally, reported IC50 values of a well-known antitumor selenocompound, i.e., sodium selenite (Na2SeO3), were used as reference for comparision with the selected selenoureas.

For assay [6], the system named is 184B5 cells (breast non-malignant derived cell line). As to the kind of experiment: MTT cell viability assay, 184B5. It is filed as cell-based. The following applies: Homo sapiens, 184B5; 48 h, MTT, mean ± SD; read-out: IC50 184B5 (breast, non-malignant).
Assay [7] has as its system HT-29 cells. As to the kind of experiment: Annexin V-APC/7AAD cell death assay. In kind it is cell-based, human. The method, then: as §4
For the determination of apoptosis, APC Annexin V Apoptosis Detection Kit with 7-AAD from Biolegend® was employed following the staining procedure described by the manufacturer. Samples were analyzed by flow cytometry using a BD Accuri™ C6 Plus Flow Cytometer (Beckton, Dickinson and company, Franklin Lakes (NJ), USA).
Mounting evidence of the anticancer potential of selenium compounds can be found in the literature. […] Remarkably, these mechanisms vary depending on the selenium compound and on cell phenotype. […] Assays were conducted at different 6c concentrations ranging from 0.1 to 10 µM. Camptothecin (10 µM) was used as positive control.

Assay [8] has as its system MCF-7 cells (breast adenocarcinoma). As to the kind of experiment: MTT cell viability assay, MCF-7. In kind it is cell-based, human. The method, boiled down: as §3
Assay [9] concerns HT-29 cells (colon carcinoma). As to the kind of experiment: MTT cell viability assay, HT-29. It is filed as cell-based. The conditions noted are these: Homo sapiens, 48 h, MTT. The method in brief: as §3
The mark [10] stands for this setting: HT-29, 6c 10 µM, 24 h, 30 min preincubation.

Regarding `COc1ccc(NC(=[Se])NC23CC4CC(CC(C4)C2)C3)cc1` [Compound 6c, N´-adamantyl-N-(4-methoxyphenyl)selenourea], the IC50 is 4.73 ± 0.79 µM in assay [1]; 5.09 ± 0.28 µM in [2] (Homo sapiens, HTB-54, 48 h, MTT, mean ± SD, read-out: IC50 HTB-54 (lung)); 3.6 ± 0.74 µM in [3]; less than 10 µM in assay [5]; 7.23 ± 2.28 µM in assay [6]; 4.94 ± 1.99 µM in assay [8] (Homo sapiens, MCF7, 48 h, MTT, mean ± SD, read-out: IC50 MCF-7 (breast)). The IC50 in [9] (HT-29, mean ± SD, read-out: IC50 HT-29 (colon)) is 5.6 ± 1.24 µM. The viability at 10 µM in assay [2] (Homo sapiens, HTB-54, 10 µM, 48 h, MTT, read-out: cell viability, percentage of live cells) was found to be 33.1%; in [8] (Homo sapiens, MCF7, MCF-7, 10 µM, 48 h, MTT, read-out: cell viability, percentage of live cells), 37.9%; in assay [9] (HT-29, 10 µM, read-out: cell viability, percentage of live cells), 34.6%. The viability at 50 µM amounted to 30.9% in [2] (Homo sapiens, HTB-54, 50 µM, 48 h, MTT, read-out: cell viability, percentage of live cells); 9.2% in assay [8] (Homo sapiens, MCF7, MCF-7, 50 µM, 48 h, MTT, read-out: cell viability, percentage of live cells); 25.7% in [9] (HT-29, 50 µM, read-out: cell viability, percentage of live cells). Besides, the “SI (selectivity index) lung” value in assay [2] (IC50 (BEAS-2B)/IC50 (HTB-54)) was 0.93. The cell cycle modulation entry in assay [4] is on record as “cell cycle arrest at the S phase in a concentration-dependent manner”. Besides, the “cell death after pre-incubation with PI3K inhibitor wortmannin” value in assay [7] (setting [10]) was “prevented induction cell death”. Moreover, the “number of dead cells after pre-incubation with pancaspase inhibitor z-VAD-fmk” value in assay [7] (setting [10]) was “no significant differences in the number of dead cells”. The “number of dead cells (7AAD positive cells)” value in [7] (HT-29, 48 h, 5 and 10 µM) is “increased the number of dead cells”. Also, the “SI (selectivity index) breast” value in [8] (IC50 (184B5)/IC50 (MCF-7)) is listed as 1.46.

Broadly, the IC50 is the concentration needed to halve the response being measured. For orientation: viability means a per cent measure of how many cells are alive, often set against a control.
